“And” between values parts separate entries of the source, which are not always exact repeats. Equal entries are not always repeated. Structures can show the parent of a compound that is named as a salt. Where two headings read alike, the source gives them in different places.
Columns and labels:
[1] = tested on: T-47D human breast cancer cells; test: cells; format: cell-based; conditions: for Selectivity Index (SI), T-47D: ratio of IC50 for healthy (MCF-10A) and T-47D cells;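 for all read-outs here: cell viability read as absorbance of formazan dye at 570 nm, each experiment run in triplicate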
[2] = tested on: MDA-MB-231 triple-negative breast cancer cells; test: cells; format: cell-based, human; conditions: for Selectivity Index (SI), MDA-MB-231: ratio of IC50 for healthy (MCF-10A) and MDA-MB-231 cells
[3] = tested on: MCF-7 human breast cancer cells; test: cells; format: cell-based; conditions: for Selectivity Index (SI), MCF-7: ratio of IC50 for healthy (MCF-10A) and MCF-7 cells;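 for all read-outs here: IC50 values, including those behind the selectivity ratio, derive from formazan absorbance at 570 nm, tested in triplicate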
human erythrocytes = test: Hemolytic activity against human erythrocytes; format: cell-based; conditions: for ED50, Erythrocytes (hemolytic activity): 1 h at 37 °C
Experimental: A total of 450 g of human blood (B(III) Rh+) was used to obtain erythrocytes by centrifuging three times for 5 min with phosphate-buffered saline (PBS) (pH 7.4) at 4 °C on a centrifuge LABOFUGE 400R (Heraeus, Hanau, Germany). Ice-cold PBS (pH 7.4) was used for resuspension of erythrocyte residue to a final optical density of 1.5 at 700 nm. Then, 20 µL of tested compound solutions or control (cucumarioside A0-1 [15]) were added to 180 µL of erythrocyte suspension in V-bottom 96-well plates and incubated for 1 h at 37 °C. After centrifugation (900 g, 10 min, laboratory centrifuge LMC-3000 (Biosan, Riga, Latvia)), 100 µL of supernatant was transferred into new flat plates. The values of erythrocyte lysis were measured on microplate photometer Multiskan FC (Thermo Fisher Scientific, Waltham, MA, USA) at λ = 570 nm as hemoglobin concentration in supernatant. […] All the experiments were carried out in triple repetitions, p < 0.05.

[4] = tested on: MCF-10A non-tumor mammary epithelial cell line; test: in vitro; format: cell-based, human
[5] = MTT assay, T-47D, read-out: Cytotoxicity, IC50, T-47D
[6] = MTT assay, MDA-MB-231, read-out: Cytotoxicity, IC50, MDA-MB-231
[7] = MTT assay, MCF-7, read-out: Cytotoxicity, IC50, MCF-7
[8] = MTT assay, MCF-10A, read-out: Cytotoxicity, IC50, MCF-10A

| Molecule | IC50 [1, 5] | Selectivity Index (SI), T-47D [1] | IC50 [2, 6] | IC50 [3, 7] | IC50 [4, 8] | Selectivity Index (SI), MDA-MB-231 [2] | Selectivity Index (SI), MCF-7 [3] | ED50, Erythrocytes (hemolytic activity) (human erythrocytes) | Hemolytic (membranolytic) activity, in words (human erythrocytes) | also measured |
| --- | --- | --- | --- | --- | --- | --- | --- | --- | --- | --- |
| C=C(C)CC[C@@H](O)[C@]1(C)OC(=O)C23CC=C4[C@@H](CC[C@H]5C(C)(C)[C@@H](O[C@@H]6OC[C@@H](O[C@@H]7O[C@H](CO)[C@@H](O)[C@H](O[C@@H]8O[C@H](CO)[C@@H](O)[C@H](OC)[C@H]8O)[C@H]7O)[C@H](O)[C@H]6O[C@@H]6O[C@H](C)[C@@H](O[C@@H]7OC[C@@H](O)[C@H](O[C@@H]8O[C@H](COS(=O)(=O)[O-])[C@@H](O)[C@H](OC)[C@H]8O)[C@H]7O)[C@H](O)[C@H]6O)CC[C@]45C)[C@]2(C)C[C@H](OC(C)=O)[C@@H]31.[Na+] (some centres unmarked) [Cladoloside K2 (32), cladoloside K2] | 14.1 ± 0.91 µM | 1.03 | 6.81 ± 0.73 µM | > 20 µM | 14.5 ± 1.07 µM |  |  |  |  | ED50, Erythrocytes (hemolytic activity) (human erythrocytes; listed as K2 (32)): 4.63 ± 0.41 µM; ED50, Erythrocytes (hemolytic activity) (human erythrocytes; listed as cladoloside K2 (32)): 4.63 µM |
| cucumarioside A0-1 [reference compound] | 8.46 ± 0.53 µM | 0.89 | 3.53 ± 0.54 µM | 11.3 ± 1 µM | 7.51 ± 0.63 µM | 2.13 | 0.66 | 1.63 ± 0.21 µM |  |  |
| cladoloside C [Cladoloside C (13)] | 12.4 ± 0.66 µM | >1.61 | 13 ± 0.8 µM | > 20 µM | > 20 µM | >1.54 |  |  | high activity | ED50, Erythrocytes (hemolytic activity) (human erythrocytes; listed as C (13)): 0.44 ± 0.05 µM; ED50, Erythrocytes (hemolytic activity) (human erythrocytes; listed as cladoloside C (13)): 0.44 µM |
| CO[C@@H]1[C@@H](O)[C@H](O[C@@H]2[C@@H](O)[C@H](O[C@@H]3CO[C@@H](O[C@H]4CC[C@]5(C)C6=CCC78C(=O)O[C@@](C)([C@@H](CCC(C)C)OC(C)=O)[C@H]7[C@@H](OC(C)=O)C[C@@]8(C)[C@@H]6CC[C@H]5C4(C)C)[C@H](O[C@@H]4O[C@H](C)[C@@H](O[C@@H]5OC[C@@H](O)[C@H](O[C@@H]6O[C@H](CO)[C@@H](O)[C@H](OS(=O)(=O)O)[C@H]6O)[C@H]5O)[C@H](O)[C@H]4O)[C@H]3O)O[C@H](CO)[C@H]2O)O[C@H](CO)[C@H]1O (stereo partly drawn) [Cladoloside T1 (4), 3β-O-{3-O-sodium sulfate-β-D-glucopyranosyl-(1→3)-β-D-xylopyranosyl-(1→4)-β-D-quinovopyranosyl-(1→2)-[3-O-methyl-β-D-glucopyranosyl-(1→3)-β-D-glucopyranosyl-(1→4)]-β-D-xylopyranosyl}-16S,22R-diacetoxyholost-9-en] |  |  |  |  |  |  |  | 0.12 µM and 0.12 ± 0.02 µM |  | IC50 [1]: 7.41 ± 0.69 µM; IC50 [2]: 2.94 ± 0.21 µM; IC50 [3]: 7.78 ± 0.62 µM; IC50 [4]: 8.41 ± 0.4 µM |
| CO[C@@H]1[C@@H](O)[C@H](O[C@@H]2[C@@H](O)[C@H](O[C@@H]3CO[C@@H](O[C@H]4CC[C@]5(C)C6=CCC78C(=O)O[C@@](C)([C@@H](CCC(C)C)OC(C)=O)[C@H]7[C@@H](OC(C)=O)C[C@@]8(C)[C@@H]6CC[C@H]5C4(C)C)[C@H](O[C@@H]4O[C@H](C)[C@@H](O[C@@H]5OC[C@@H](O)[C@H](O[C@@H]6O[C@H](COS(=O)(=O)[O-])[C@@H](O)[C@H](OC)[C@H]6O)[C@H]5O)[C@H](O)[C@H]4O)[C@H]3O)O[C@H](CO)[C@H]2O)O[C@H](CO)[C@H]1O.[Na+] (some centres unmarked) [Cladoloside K1 (31), cladoloside K1] | 12.1 ± 1 µM | >1.65 | 5.83 ± 0.41 µM | > 20 µM | > 20 µM |  |  |  |  | ED50, Erythrocytes (hemolytic activity) (human erythrocytes; listed as K1 (31)): 0.31 ± 0.02 µM; ED50, Erythrocytes (hemolytic activity) (human erythrocytes; listed as cladoloside K1 (31)): 0.31 µM |
| C=C(C)CCC[C@]1(C)OC(=O)C23CC=C4[C@@H](CC[C@H]5C(C)(C)[C@@H](O[C@@H]6OC[C@@H](O[C@@H]7O[C@H](CO)[C@@H](O)[C@H](O[C@@H]8O[C@H](CO)[C@@H](O)[C@H](OC)[C@H]8O)[C@H]7O)[C@H](O)[C@H]6O[C@@H]6O[C@H](C)[C@@H](O[C@@H]7OC[C@@H](O)[C@H](O[C@@H]8O[C@H](CO)[C@@H](O)[C@H](O)[C@H]8O)[C@H]7O)[C@H](O)[C@H]6O)CC[C@]45C)[C@]2(C)CC(=O)[C@@H]31 (some centres unmarked) [Cladoloside P2 (41), Cladoloside P2] | 10.6 ± 0.61 µM | 1.05 | 6.92 ± 0.44 µM | 16.3 ± 1.03 µM | 11.1 ± 0.74 µM | 1.60 | 0.68 | 0.17 ± 0.02 µM | strong hemolytics |  |
| CO[C@@H]1[C@@H](O)[C@H](O[C@@H]2[C@@H](O)[C@H](O[C@H]3[C@H](O)[C@@H](O)[C@H](O[C@H]4[C@H](O[C@H]5CC[C@]6(C)C7=CCC89C(=O)O[C@@](C)(CCC=C(C)C)[C@H]8C(=O)C[C@@]9(C)[C@@H]7CC[C@H]6C5(C)C)OC[C@@H](O)[C@@H]4O)O[C@@H]3C)OC[C@H]2O)O[C@H](CO)[C@H]1O (some centres unmarked) [A4 (8), cladoloside A4] | > 20 µM |  | > 20 µM | > 20 µM | > 20 µM |  |  | 13.60 ± 0.70 µM | weakest effect from the series |  |
| CO[C@@H]1[C@@H](O)[C@H](O[C@@H]2[C@@H](O)[C@H](O[C@H]3[C@H](O)[C@@H](O)[C@H](O[C@H]4[C@H](O[C@H]5CC[C@]6(C)C7=CCC89C(=O)O[C@@](C)([C@@H](CCC(C)C)OC(C)=O)[C@H]8[C@@H](OC(C)=O)C[C@@]9(C)[C@@H]7CC[C@H]6C5(C)C)OC[C@@H](O[C@@H]5O[C@H](CO)[C@@H](O)[C@H](O)[C@H]5O)[C@@H]4O)O[C@@H]3C)OC[C@H]2O)O[C@H](COS(=O)(=O)[O-])[C@H]1O.[Na+] (some centres unmarked) [Cladoloside I1 (28), cladoloside I1] | 9.91 ± 0.68 µM | 1.36 | 3.02 ± 0.28 µM | 11.2 ± 1.02 µM | 13.4 ± 0.92 µM | 4.45 | 1.20 |  |  | ED50, Erythrocytes (hemolytic activity) (human erythrocytes; listed as I1 (28)): 1.72 ± 0.10 µM; ED50, Erythrocytes (hemolytic activity) (human erythrocytes; listed as cladoloside I1 (28)): 1.72 µM |
| C=C(C)CC[C@@H](OC(C)=O)[C@]1(C)OC(=O)C23CC=C4[C@@H](CC[C@H]5C(C)(C)[C@@H](O[C@@H]6OC[C@@H](O)[C@H](O)[C@H]6O[C@@H]6O[C@H](C)[C@@H](O[C@@H]7O[C@H](CO)[C@@H](O)[C@H](O[C@@H]8O[C@H](CO)[C@@H](O)[C@H](OC)[C@H]8O)[C@H]7O)[C@H](O)[C@H]6O)CC[C@]45C)[C@]2(C)C[C@H](OC(C)=O)[C@@H]31 (some centres unmarked) [A6 (10), cladoloside A6] | > 20 µM |  | > 20 µM | > 20 µM | > 20 µM |  |  | 3.43 ± 0.22 µM |  |  |
| C=C(C)CC[C@@H](OC(C)=O)[C@]1(C)OC(=O)C23CC=C4[C@@H](CC[C@H]5C(C)(C)[C@@H](O[C@@H]6OC[C@@H](O[C@@H]7O[C@H](CO)[C@@H](O)[C@H](O)[C@H]7O)[C@H](O)[C@H]6O[C@@H]6O[C@H](C)[C@@H](O[C@@H]7OC[C@@H](O)[C@H](O[C@@H]8O[C@H](CO)[C@@H](O)[C@H](OC)[C@H]8O)[C@H]7O)[C@H](O)[C@H]6O)CC[C@]45C)[C@]2(C)C[C@H](OC(C)=O)[C@@H]31 (some centres unmarked) [Cladoloside B2 (12), cladoloside B2] | 12.5 ± 0.96 µM | 0.98 | 3.92 ± 0.35 µM | 14.5 ± 0.48 µM | 12.2 ± 1.2 µM | 3.12 | 0.84 |  | high activity | ED50, Erythrocytes (hemolytic activity) (human erythrocytes; listed as B2 (12)): 0.31 ± 0.02 µM; ED50, Erythrocytes (hemolytic activity) (human erythrocytes; listed as cladoloside B2 (12)): 0.31 µM |
| CO[C@@H]1[C@@H](O)[C@H](O[C@@H]2[C@@H](O)[C@H](O[C@H]3[C@H](O)[C@@H](O)[C@H](O[C@H]4[C@H](O[C@H]5CC[C@]6(C)C7=CCC89C(=O)O[C@@](C)([C@@H](CCC(C)C)OC(C)=O)[C@H]8[C@@H](OC(C)=O)C[C@@]9(C)[C@@H]7CC[C@H]6C5(C)C)OC[C@@H](O[C@@H]5O[C@H](CO)[C@@H](O)[C@H](O)[C@H]5O)[C@@H]4O)O[C@@H]3C)OC[C@H]2O)O[C@H](CO)[C@H]1O (some centres unmarked) [Cladoloside B1 (11), cladoloside B1] | 13 ± 1.07 µM | >1.54 | 10.1 ± 1 µM | > 20 µM | > 20 µM | >1.98 |  |  |  | ED50, Erythrocytes (hemolytic activity) (human erythrocytes; listed as B1 (11)): 0.55 ± 0.04 µM; ED50, Erythrocytes (hemolytic activity) (human erythrocytes; listed as cladoloside B1 (11)): 0.55 µM |
